# Data reported in publication PMC10897598, “TwinF interface inhibitor FP802 stops loss of motor neurons and mitigates disease progression in a mouse model of ALS” (Cell Reports Medicine, 2024).
# How the values were obtained:
# Assay type in all cases: in vivo
# [1] = FP802 concentration in the spinal cord after subcutaneous osmotic pump delivery
# From the text: We next used FP802 in the transgenic SOD1^G93A mouse model of ALS that expresses mutant human SOD1 with a glycine to alanine substitution at position 93 and whose general features resemble ALS in humans.[24]^,[25] SOD1^G93A mice represent a widely accepted animal model used extensively in ALS drug discovery to evaluate the efficacy of compounds now in clinical trials, which include masitinib, pridopidine, fasudil, guanabenz, and AMX0035.[26]^,[27]^,[28]^,[29]^,[30]^,[31]^,[32] We first confirmed using immunoblot analysis the reduction of EAAT2/GLT-1 expression in the spinal cord of SOD1^G93A mice (Figures 1F and 1G). Deregulation of glutamate uptake systems may lead to an increase in toxic eNMDAR signaling, which could be the cause of motor neuron death. To test this hypothesis, we applied FP802 subcutaneously to SOD1^G93A mice using an implanted ALZET osmotic mini pump to achieve a steady release of the drug. […] Following successful deactivation of the NMDAR/TRPM4 death signaling complex by FP802 in vivo, we next assessed potential therapeutic benefits of FP802 in SOD1^G93A mice. To implement an experimental design that resembles a clinical situation, we started treatment of SOD1^G93A mice with FP802 at the time of onset of motor deficits, which was around week 15.[33]^,[34]
# A total of 83 heterozygous SOD1^G93A and 22 wild-type littermates were employed in this study. Eight WT and 12 SOD1^G93A mice were used to determine the EAAT2 protein levels in the spinal cord. Three SOD1^G93A mice were treated with FP802 to explore the concentration of FP802 in the spinal cord. Four SOD1^G93A mice were used to test the tolerability of mice to subcutaneously ALZET osmotic pump (type 2004) implantation with FP802 that allowed a continuous and constant supply of compound to the animals for 4 weeks. Eight wild-type mice were used to explore the disruption of the NMDAR/TRPM4 death signaling complex by FP802. In total, 52 SOD1^G93A mice were treated with FP802 or vehicle via ALZET osmotic pump from week 15 for 30 days (four cohorts). […]
# SOD1^G93A mice = experiment: Post-onset treatment of the SOD1G93A ALS mouse model
# From the text: Heterozygous SOD1^G93A transgenic mice expressing human SOD1^G93A mutant on a C57BL/6 background (Jackson Laboratory, 004435, RRID:IMSR_JAX:004435) were used in this study.[24]^,[34] Heterozygosity was maintained by mating heterozygous transgenic males with C57BL/6 wild-type females. The animals were provided by the interdisciplinary neurobehavioral core (INBC) at Heidelberg University. Only male wild-type mice and male transgenic mice were used in the experiments. They were housed in groups (maximally three mice/cage) in the INBC, where all behavior experiments were performed. All mice were kept in standard cages (15 cm × 21 cm × 13.5 cm) on a 12:12 h light:dark cycle with ad libitum access to food, water, and nesting material. The treatments were randomly allocated to mice within litter blocks. The experimenter was blinded to the experimental group from the implantation until all analyses were done.
# A total of 83 heterozygous SOD1^G93A and 22 wild-type littermates were employed in this study. Eight WT and 12 SOD1^G93A mice were used to determine the EAAT2 protein levels in the spinal cord. Three SOD1^G93A mice were treated with FP802 to explore the concentration of FP802 in the spinal cord. Four SOD1^G93A mice were used to test the tolerability of mice to subcutaneously ALZET osmotic pump (type 2004) implantation with FP802 that allowed a continuous and constant supply of compound to the animals for 4 weeks. Eight wild-type mice were used to explore the disruption of the NMDAR/TRPM4 death signaling complex by FP802. In total, 52 SOD1^G93A mice were treated with FP802 or vehicle via ALZET osmotic pump from week 15 for 30 days (four cohorts). It was not possible to extend the treatment beyond the 30 days application period because the poor health state of many animals was incompatible with the anesthesia required for surgical implantation of a second osmotic pump. The number of animals used for experiments was specified in the figure legends. […] In addition, six wild-type littermates and 12 SOD1^G93A mice were used at week 19 and week 15, respectively, for the analysis of motor neuron survival and serum NfL levels. For the analysis of motor neuron survival, three mice (two from wild-type littermates, one from vehicle-treated SOD1^G93A mice) were excluded from the motor neuron survival because of the loss of sample during preparation.
# Bodyweight and neurological scores were examined weekly starting at the onset of symptoms at week 15, which has been defined by previous studies with the same mouse line.[33]^,[34] Neurological scores of the mice were recorded as 0–4 based on the behavior of their hind limbs.[46] The humane endpoint was defined as the mouse’s inability to rectify itself in 30 s and examined daily from week 19 without knowing the treatment group.
# Before experiments, mice were habituated to the experimenter and testing room by gentle handling for 1 min in 3 consecutive days. A brief video was taken in the behavior room where the SOD1^G93A mice were placed in an open chamber. On the experimental day, the mice were placed into an open arena (50 cm × 50 cm × 50 cm) for a total of 10 min experiment. The total traveled distance of each mouse was traced and analyzed with SYGNIS software, and also the rearing time was reordered without knowledge of the treatment.
# The survival of motor neurons was examined by quantifying the motor neuron marker, choline acetyltransferase (ChAT)-positive neurons, and the inflammation was examined by quantifying the microglial cell marker, ionized calcium binding adaptor molecule 1 (Iba1), in the ventral horn of lumbar spinal cord (L3-L5). All control mice and SOD1 mice were perfused with 20 mL PBS followed by 20 mL of 4% paraformaldehyde in PBS. The lumbar spinal cord was dissected and post-fixed in the same solution for an additional 10 min, followed by 24 h incubation with 30% sucrose solution in PBS. […]
# NMDAR/TRPM4 complex = molecular target: T1, NMDAR/TRPM4 complex (Mus musculus, UniProt Q7TN37); experiment: Co-immunoprecipitation of the NMDAR/TRPM4 complex from lumbar spinal cord lysates of treated animals; settings: two weeks after osmotic pump implantation
# T1 construct: Lumbar spinal cords were dissected from mice two weeks after ALZET osmotic pump (1002) implantation; from tissue; host or cells: lumbar spinal cord of wild-type mice treated in vivo with vehicle or FP802
# Method: A total of 83 heterozygous SOD1^G93A and 22 wild-type littermates were employed in this study. Eight WT and 12 SOD1^G93A mice were used to determine the EAAT2 protein levels in the spinal cord. Three SOD1^G93A mice were treated with FP802 to explore the concentration of FP802 in the spinal cord. Four SOD1^G93A mice were used to test the tolerability of mice to subcutaneously ALZET osmotic pump (type 2004) implantation with FP802 that allowed a continuous and constant supply of compound to the animals for 4 weeks. Eight wild-type mice were used to explore the disruption of the NMDAR/TRPM4 death signaling complex by FP802. In total, 52 SOD1^G93A mice were treated with FP802 or vehicle via ALZET osmotic pump from week 15 for 30 days (four cohorts). It was not possible to extend the treatment beyond the 30 days application period because the poor health state of many animals was incompatible with the anesthesia required for surgical implantation of a second osmotic pump. The number of animals used for experiments was specified in the figure legends. […]
# All procedures for immunoprecipitation were carried out at 4°C as described before.[20] […] Protein concentrations of the supernatants were measured using the Pierce BCA Protein Assay Kit. […]
# [2] = FP802 for 4 weeks from week 15, vs vehicle
# T1 sequence (Q7TN37 whole entry, one chain of several): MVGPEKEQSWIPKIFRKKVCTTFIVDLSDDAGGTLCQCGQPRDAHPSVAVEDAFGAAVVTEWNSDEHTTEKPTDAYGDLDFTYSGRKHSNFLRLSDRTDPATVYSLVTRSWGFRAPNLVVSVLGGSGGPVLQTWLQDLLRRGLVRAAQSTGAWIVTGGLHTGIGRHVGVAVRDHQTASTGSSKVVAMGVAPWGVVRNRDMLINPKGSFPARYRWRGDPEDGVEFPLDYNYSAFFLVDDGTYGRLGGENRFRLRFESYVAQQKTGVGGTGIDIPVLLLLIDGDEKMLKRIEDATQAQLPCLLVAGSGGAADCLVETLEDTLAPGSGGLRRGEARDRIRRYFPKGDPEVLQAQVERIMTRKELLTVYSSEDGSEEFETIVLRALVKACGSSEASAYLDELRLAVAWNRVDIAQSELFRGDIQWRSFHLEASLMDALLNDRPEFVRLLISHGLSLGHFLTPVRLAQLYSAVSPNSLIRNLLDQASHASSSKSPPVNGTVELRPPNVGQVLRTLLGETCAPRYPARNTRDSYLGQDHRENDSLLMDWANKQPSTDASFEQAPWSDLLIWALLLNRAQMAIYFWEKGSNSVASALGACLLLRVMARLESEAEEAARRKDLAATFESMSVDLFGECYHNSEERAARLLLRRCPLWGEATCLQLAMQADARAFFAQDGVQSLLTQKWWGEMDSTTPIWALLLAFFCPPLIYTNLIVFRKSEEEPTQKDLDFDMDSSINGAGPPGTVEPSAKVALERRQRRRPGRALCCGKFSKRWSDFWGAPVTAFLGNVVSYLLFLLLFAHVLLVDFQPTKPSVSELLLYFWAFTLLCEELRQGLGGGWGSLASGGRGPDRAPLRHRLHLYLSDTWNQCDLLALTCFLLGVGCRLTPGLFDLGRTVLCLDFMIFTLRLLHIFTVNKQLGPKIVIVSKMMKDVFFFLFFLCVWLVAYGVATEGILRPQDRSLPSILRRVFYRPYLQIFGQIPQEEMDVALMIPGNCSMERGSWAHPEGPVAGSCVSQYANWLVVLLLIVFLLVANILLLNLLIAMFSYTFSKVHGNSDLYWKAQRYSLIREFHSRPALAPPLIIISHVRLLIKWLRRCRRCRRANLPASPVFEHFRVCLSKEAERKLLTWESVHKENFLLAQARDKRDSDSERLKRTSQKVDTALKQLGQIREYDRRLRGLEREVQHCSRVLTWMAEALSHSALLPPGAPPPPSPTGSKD
structure (smiles),measurement,setting,value
CCN(CCN)Cc1cccc(Cl)c1 [FP802],concentration in the spinal cord,"[1]; SOD1G93A mice, 40 mg/kg/day s.c. ALZET osmotic pump, 2 weeks, n = 3",7.54 ± 4.79 nmol/g
same,concentration at 2 weeks,"[1]; SOD1G93A transgenic, mouse, spinal cord, sc, SOD1G93A mice, 40 mg/kg/day s.c., 2 weeks, read-out: concentration in the spinal cord, corresponding molar concentration",3 to 12 µM
same,crossing of the mouse blood-spinal cord barrier,[1]; s.c. ALZET osmotic mini pump,readily crossed
same,EAAT/GLT-1 expression in lumbar spinal cord,"SOD1^G93A mice; 40 mg/kg/day for 4 weeks from week 15, immunoblot",no significant effect
same,neurological scores,"SOD1^G93A mice; FP802 for 4 weeks from week 15 (onset), s.c. osmotic pump, vs vehicle",significantly better
same,body weight losses,SOD1^G93A mice; [2],lower
same,"motor performance, total distances traveled in an open field",SOD1^G93A mice; [2],significantly improved
same,rearing behavior in open field,SOD1^G93A mice; [2],frequent rearing behavior
same,survival median (lifespan),"SOD1^G93A mice; FP802 for 4 weeks starting at week 15, vehicle 151 days",164 days
same,"neuroinflammatory response, microglia marker Iba1","SOD1^G93A mice; ventral horn of lumbar spinal cord, week 19",not affected
same,serum levels of neurofilament light (NfL) chain,"SOD1^G93A mice; week 19, treatment from week 15",reduction
same,soma sizes of lumbar spinal motor neurons,"SOD1^G93A mice; week 19, vs control-treated SOD1G93A mice",larger
same,number of lumbar spinal motor neurons (ChAT-positive),"SOD1^G93A mice; week 19 vs week 15, treatment from week 15",no additional death
same,interaction of TRPM4 with the NMDAR subunit GluN2B (co-immunoprecipitation),NMDAR/TRPM4 complex,disrupted
